Assay results: ChEMBL document CHEMBL1909294, “Translating clinical findings into knowledge in drug safety evaluation--drug induced liver injury prediction system (DILIps)” (PLoS Comput Biol, 2011)

How the values were obtained:
Hepatotoxicity [1] = test system: Hepatotoxicity;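 for HepSE cholecystitis: Cholecystitis-related hepatic side effect score drawn from the DILIps (drug-induced liver injury prediction) training data set; call rule not given here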;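 for HepSE hepatitis: Hepatitis-related hepatic side effect score taken from the training data of DILIps, a prediction system for drug-induced liver injury; call rule not given here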;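 for HepSE hepatomegaly: hepatic side effect score for hepatomegaly, taken from the training set of the DILIps drug-induced liver injury prediction system; call rule not given here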;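 for HepSE jaundice: Jaundice-related hepatic side-effect score drawn from the training data of the DILIps (drug-induced liver injury prediction system); call rule not given here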; for HepSE liver disease: call rule not given here;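 for HepSE liver function tests abnormal: hepatic side effect score taken from the DILIps (drug-induced liver injury prediction system) training data, here covering abnormal liver function test findings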
Hepatotoxicity [2] = test system: Hepatotoxicity; remark: listed apart in the source;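 for HepSE cholecystitis: Cholecystitis-related hepatic side effect score drawn from the DILIps (drug-induced liver injury prediction) training data set; call rule not given here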;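 for HepSE hepatitis: Hepatitis-related hepatic side effect score taken from the training data of DILIps, a prediction system for drug-induced liver injury; call rule not given here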;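 for HepSE hepatomegaly: hepatic side effect score for hepatomegaly, taken from the training set of the DILIps drug-induced liver injury prediction system; call rule not given here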;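 for HepSE jaundice: Jaundice-related hepatic side-effect score drawn from the training data of the DILIps (drug-induced liver injury prediction system); call rule not given here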; for HepSE liver disease: call rule not given here;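 for HepSE liver function tests abnormal: hepatic side effect score taken from the DILIps (drug-induced liver injury prediction system) training data, here covering abnormal liver function test findings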
Hepatotoxicity [3] = test system: Hepatotoxicity; remark: listed apart in the source;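 for HepSE cholecystitis: Cholecystitis-related hepatic side effect score drawn from the DILIps (drug-induced liver injury prediction) training data set; call rule not given here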;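 for HepSE hepatitis: Hepatitis-related hepatic side effect score taken from the training data of DILIps, a prediction system for drug-induced liver injury; call rule not given here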;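 for HepSE hepatomegaly: hepatic side effect score for hepatomegaly, taken from the training set of the DILIps drug-induced liver injury prediction system; call rule not given here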;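 for HepSE jaundice: Jaundice-related hepatic side-effect score drawn from the training data of the DILIps (drug-induced liver injury prediction system); call rule not given here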; for HepSE liver disease: call rule not given here;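 for HepSE liver function tests abnormal: hepatic side effect score taken from the DILIps (drug-induced liver injury prediction system) training data, here covering abnormal liver function test findings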
Hepatotoxicity [4] = test system: Hepatotoxicity; remark: listed apart in the source;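 for HepSE cholecystitis: Cholecystitis-related hepatic side effect score drawn from the DILIps (drug-induced liver injury prediction) training data set; call rule not given here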;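 for HepSE hepatitis: Hepatitis-related hepatic side effect score taken from the training data of DILIps, a prediction system for drug-induced liver injury; call rule not given here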;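 for HepSE hepatomegaly: hepatic side effect score for hepatomegaly, taken from the training set of the DILIps drug-induced liver injury prediction system; call rule not given here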;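 for HepSE jaundice: Jaundice-related hepatic side-effect score drawn from the training data of the DILIps (drug-induced liver injury prediction system); call rule not given here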; for HepSE liver disease: call rule not given here;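 for HepSE liver function tests abnormal: hepatic side effect score taken from the DILIps (drug-induced liver injury prediction system) training data, here covering abnormal liver function test findings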
Hepatotoxicity [5] = test system: Hepatotoxicity; remark: listed apart in the source; for HepSE liver disease: call rule not given here
Hepatotoxicity [6] = test system: Hepatotoxicity; remark: listed apart in the source; for HepSE liver disease: call rule not given here
Hepatotoxicity [7] = test system: Hepatotoxicity; remark: listed apart in the source
Hepatotoxicity [8] = test system: Hepatotoxicity; remark: listed apart in the source
Hepatotoxicity [9] = test system: Hepatotoxicity; remark: listed apart in the source
Hepatotoxicity [10] = test system: Hepatotoxicity; remark: listed apart in the source
Hepatotoxicity [11] = test system: Hepatotoxicity; remark: listed apart in the source
Hepatotoxicity [12] = test system: Hepatotoxicity; remark: listed apart in the source
Hepatotoxicity [13] = test system: Hepatotoxicity; remark: listed apart in the source
Hepatotoxicity [14] = test system: Hepatotoxicity; remark: listed apart in the source

Compound | HepSE_hepatomegaly (Hepatotoxicity [1]) | HepSE_hepatitis (Hepatotoxicity [2]) | HepSE_liver disease (Hepatotoxicity [3]) | HepSE_bilirubinemia (Hepatotoxicity [4]) | HepSE_jaundice (Hepatotoxicity [5]) | HepSE_liver function tests abnormal (Hepatotoxicity [6]) | HepSE_cholecystitis (Hepatotoxicity [7]) | HepSE_Combined Scores (Hepatotoxicity [8]) | HepSE_liver fatty (Hepatotoxicity [9]) | HepSE_hepatic failure (Hepatotoxicity [10]) | HepSE_hepatic necrosis (Hepatotoxicity [11]) | HepSE_cholelithiasis (Hepatotoxicity [12]) | HepSE_cirrhosis (Hepatotoxicity [13]) | HepSE_elevated liver function tests (Hepatotoxicity [14]) | also measured
FCOC(C(F)(F)F)C(F)(F)F [SEVOFLURANE] | 0 | 1 | 0 | 1 | 1 | 0 | 0 | 5 | 0 | 1 | 1 | 0 | 0 | 0 | –
CC(C(=O)O)c1cccc(C(=O)c2ccccc2)c1 (configuration not stated) [KETOPROFEN] | 0 | 1 | 0 | 0 | 1 | 0 | 0 | 2 | 0 | 0 | 0 | 0 | 0 | 0 | –
CCCCC1=NC2(CCCC2)C(=O)N1Cc1ccc(-c2ccccc2-c2nnn[nH]2)cc1 [IRBESARTAN] | 0 | 1 | 0 | 0 | 1 | 0 | 0 | 3 | 0 | 0 | 0 | 0 | 0 | 1 | –
CC(=O)O[C@H]1C[C@@H]2CC[C@@H]3[C@H](CC[C@@]4(C)[C@H]3C[C@H]([N+]3(C)CCCCC3)[C@@H]4OC(C)=O)[C@@]2(C)C[C@@H]1N1CCCCC1 [VECURONIUM] | 0 | 0 | 0 | 0 | 0 | 0 | 0 | 0 | 0 | 0 | 0 | 0 | 0 | 0 | –
CC(=O)N[C@@H](CS)C(=O)O [ACETYLCYSTEINE] | 0 | 0 | 0 | 0 | 0 | 0 | 0 | 0 | 0 | 0 | 0 | 0 | 0 | 0 | –
C[C@@H]1C[C@H]2[C@@H]3C[C@H](F)C4=CC(=O)C=C[C@]4(C)[C@@]3(F)[C@@H](O)C[C@]2(C)[C@@]1(O)C(=O)SCF [FLUTICASONE] | 0 | 0 | 0 | 0 | 0 | 0 | 1 | 1 | 0 | 0 | 0 | 0 | 0 | 0 | –
Cc1cn([C@H]2C[C@H](O)[C@@H](CO)O2)c(=O)[nH]c1=O [DOXRIBTIMINE] | 0 | 1 | 0 | 0 | 0 | 0 | 0 | 1 | 0 | 0 | 0 | 0 | 0 | 0 | –
CN1CCN(C(=O)OC2c3nccnc3C(=O)N2c2ccc(Cl)cn2)CC1 (configuration not stated) [ZOPICLONE] | 1 | 1 | 0 | 0 | 0 | 0 | 0 | 3 | 0 | 0 | 0 | 1 | 0 | 0 | –
O=C(O)O [BICARBONATE] | – | – | – | – | – | – | – | – | – | – | – | – | – | – | HepSE_hepatomegaly (Hepatotoxicity [1]; Liver): 0; HepSE_hepatitis (Hepatotoxicity [2]; Liver): 0; HepSE_liver disease (Hepatotoxicity [3]; Liver): 0; HepSE_bilirubinemia (Hepatotoxicity [4]; Liver): 0; HepSE_jaundice (Hepatotoxicity [5]; Liver): 0; HepSE_liver function tests abnormal (Hepatotoxicity [6]; Liver): 0; HepSE_cholecystitis (Hepatotoxicity [7]; Liver): 0; HepSE_Combined Scores (Hepatotoxicity [8]; Liver): 0; HepSE_liver fatty (Hepatotoxicity [9]; Liver): 0; HepSE_hepatic failure (Hepatotoxicity [10]; Liver): 0; HepSE_hepatic necrosis (Hepatotoxicity [11]; Liver): 0; HepSE_cholelithiasis (Hepatotoxicity [12]; Liver): 0; HepSE_cirrhosis (Hepatotoxicity [13]; Liver): 0; HepSE_elevated liver function tests (Hepatotoxicity [14]; Liver): 0
Cc1[nH]cnc1CN1CCc2c(c3ccccc3n2C)C1=O [ALOSETRON] | 0 | 1 | 0 | 0 | 1 | 0 | 1 | 3 | 0 | 0 | 0 | 0 | 0 | 0 | –
NS(=O)(=O)Cc1noc2ccccc12 [ZONISAMIDE] | 0 | 0 | 0 | 0 | 1 | 0 | 1 | 3 | 0 | 0 | 0 | 1 | 0 | 0 | –
Cc1ncc([N+](=O)[O-])n1CCO [METRONIDAZOLE] | 0 | 1 | 0 | 0 | 0 | 0 | 0 | 1 | 0 | 0 | 0 | 0 | 0 | 0 | –
CN1CCCC(n2nc(Cc3ccc(Cl)cc3)c3ccccc3c2=O)CC1 (configuration not stated) [AZELASTINE] | 0 | 0 | 0 | 0 | 0 | 0 | 0 | 0 | 0 | 0 | 0 | 0 | 0 | 0 | –
